According to patent US9303045B2, “5-HT3 receptor antagonists” (Takeda Pharmaceutical Company Limited, priority 2013, dated 2016):

Target: 5HT3a receptor expressed in HEK-293T cells (Homo sapiens (Human), UniProt P46098)
Assay: Inhibition of Ca flux activity of 5HT3 in vitro assay
Format: cell-based
Settings: calcium flux, 5HT 216 nM, approximate values
Procedure: Inhibition of Ca Flux Activity of 5HT3 In Vitro Assay
The 5HT3 antagonist activity of the compounds of the invention was determined by measuring the ability of the compounds to inhibit the calcium flux activity of […] receptor expressed in HEK-293T cells. HEK-293T cells were transfected with the 5HT3a expression construct using Xtreme Gene 9 (Roche) in 150 mm tissue culture treated plates and incubated for 24 hours at 37° C. Cells were then split and plated at a density of 60K cells/well in poly-lysine coated, black 96-well plates with clear bottoms (BD BioSciences) and incubated overnight at 37° C. Growth media was removed and cells loaded with 200 uL calcium indicator dye in HBSS containing 20 mM HEPES (Calcium 5 Assay kit, Molecular Devices) and incubated at 37° C. for 1 hour. While cells were incubating, the 10× antagonist and agonist/antagonist addition plates were made. For 10× antagonist plate: half log serial dilutions (final concentrations range from 10^−7 through 10^−10 with the bottom well a negative, no ligand control) were made from test compounds in DMSO at a 1000× concentration and then diluted to 10× in HBSS/20 mM HEPES. For addition plate: 5HT was diluted to 100× in HBSS/20 mM HEPES (final concentration in the assay—216 nM) and 15 uL was added to each well of the addition plate, 15 uL of 10× compound was also added to the addition plate, and finally 120 uL of HBSS/20 mM HEPES (for a total of 150 uL). Cells were then removed from the incubator and equilibrated to room temperature for 10 minutes, then 22.5 uL of 10× test compounds were added in triplicate to the plates and incubated at room temperature for 10 minutes (Tropisetron was used as a positive control in every assay). Test plate and addition plate were loaded into the FlexStation III (Molecular Devices), and using the fluidics, 22.5 uL compound additions were made (at t=˜17 seconds), and fluorescence was measured for 90 seconds, reading every 2.2 seconds. Data sets were analyzed as max minus min using Software Max Pro (Molecular Devices). IC50 curves were generated using non-linear regression in GraphPad Prism.

Sequence of 5HT3a receptor expressed in HEK-293T cells (P46098 24-478): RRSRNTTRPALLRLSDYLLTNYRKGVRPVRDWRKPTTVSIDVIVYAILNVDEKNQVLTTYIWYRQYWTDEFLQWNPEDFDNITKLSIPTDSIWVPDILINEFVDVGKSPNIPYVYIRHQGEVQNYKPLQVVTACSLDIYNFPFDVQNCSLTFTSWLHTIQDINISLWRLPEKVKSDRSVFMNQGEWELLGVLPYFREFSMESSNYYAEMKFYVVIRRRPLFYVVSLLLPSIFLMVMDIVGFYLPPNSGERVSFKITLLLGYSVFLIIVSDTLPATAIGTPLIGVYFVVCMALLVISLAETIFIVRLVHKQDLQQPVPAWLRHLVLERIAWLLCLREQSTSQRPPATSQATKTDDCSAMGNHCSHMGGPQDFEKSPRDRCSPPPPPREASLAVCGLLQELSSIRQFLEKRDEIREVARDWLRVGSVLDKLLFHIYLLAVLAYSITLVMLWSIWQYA

SMILES	IC50 [nM]
O=C(OC1CC2COCC(C1)N2)c1cn(CC(F)(F)F)c2ccc(F)cc12 [Example 59, (1R,5S,7S)-3-oxa-9-azabicyclo[3.3.1]nonan-7-yl 5-fluoro-1-(2,2,2-trifluoroethyl)-1H-indole-3-carboxylate, 2,2,2-trifluoroacetate]	2.36
CN1[C@@H]2CCC[C@H]1CC(OC(=O)c1cn(CC(F)F)c3ccc(F)cc13)C2 (stereo partly drawn) [Example 60, (1R,3R,5S)-9-methyl-9-azabicyclo[3.3.1]nonan-3-yl 1-(2,2-difluoroethyl)-5-fluoro-1H-indole-3-carboxylate, 2,2,2-trifluoroacetate]	0.44
CN1C2CCCC1CC(OC(=O)c1cn(CC(F)F)c3ncccc13)C2 [Example 61, (1R,3R,5S)-9-methyl-9-azabicyclo[3.3.1]nonan-3-yl 1-(2,2-difluoroethyl)-1H-pyrrolo[2,3-b]pyridine-3-carboxylate, 2,2,2-trifluoroacetate]	1
CN1C2CCC1CC(NC(=O)c1nn(S(C)(=O)=O)c3ccccc13)C2 [Example 62, N-((1R,3R,5S)-8-methyl-8-azabicyclo[3.2.1]octan-3-yl)-1-(methylsulfonyl)-1H-indazole-3-carboxamide, 2,2,2-trifluoroacetate]	0.75
CN1[C@@H]2COC[C@H]1CC(NC(=O)c1cn(CC(F)F)c3ccc(F)cc13)C2 (stereo partly drawn) [Example 63, 1-(2,2-difluoroethyl)-5-fluoro-N-((1R,5S,7S)-9-methyl-3-oxa-9-azabicyclo[3.3.1]nonan-7-yl)-1H-indole-3-carboxamide, 2,2,2-trifluoroacetate]	0.49
CN1C2COCC1CC(NC(=O)c1cn(CC(F)F)c3ncccc13)C2 [Example 64, 1-(2,2-difluoroethyl)-N-((1R,5S,7S)-9-methyl-3-oxa-9-azabicyclo[3.3.1]nonan-7-yl)-1H-pyrrolo[2,3-b]pyridine-3-carboxamide, 2,2,2-trifluoroacetate]	1.43
O=C(NC1C[C@H]2COC[C@@H](C1)N2)c1nn(CC(F)F)c2ccccc12 (stereo partly drawn) [Example 65, N-((1R,5S,7S)-3-oxa-9-azabicyclo[3.3.1]nonan-7-yl)-1-(2,2-difluoroethyl)-1H-indazole-3-carboxamide, 2,2,2-trifluoroacetate]	4.09
CN1[C@@H]2COC[C@H]1CC(NC(=O)c1nn(CC(F)F)c3ncccc13)C2 (stereo partly drawn) [Example 66, 1-(2,2-difluoroethyl)-N-((1R,5S,7S)-9-methyl-3-oxa-9-azabicyclo[3.3.1]nonan-7-yl)-1H-pyrazolo[3,4-b]pyridine-3-carboxamide, 2,2,2-trifluoroacetate]	1.07
O=C(N[C@H]1CN2CCC1CC2)c1cn(CC(F)F)c2ncccc12 [Example 67, (R)-1-(2,2-difluoroethyl)-N-(quinuclidin-3-yl)-1H-pyrrolo[2,3-b]pyridine-3-carboxamide, 2,2,2-trifluoroacetate]	> 1000
CN1C2COCC1CC(NC(=O)c1cn(C(C)(C)C(F)(F)F)c3ncccc13)C2 [Example 69, N-((1R,5S,7S)-9-methyl-3-oxa-9-azabicyclo[3.3.1]nonan-7-yl)-1-(1,1,1-trifluoro-2-methylpropan-2-yl)-1H-pyrrolo[2,3-b]pyridine-3-carboxamide, 2,2,2-trifluoroacetate]	1.06
CN1[C@@H]2CC[C@H]1CC(OC(=O)c1cn(CC(F)F)c3ncccc13)C2 (stereo partly drawn) [Example 72, (1R,3R,5S)-8-methyl-8-azabicyclo[3.2.1]octan-3-yl 1-(2,2-difluoroethyl)-1H-pyrrolo[2,3-b]pyridine-3-carboxylate, 2,2,2-trifluoroacetate]	3.59
Cc1c(C(=O)OC2C[C@H]3CC[C@@H](C2)N3C)c2ccccc2n1CC(F)F (stereo partly drawn) [Example 73, (1R,3R,5S)-8-methyl-8-azabicyclo[3.2.1]octan-3-yl 1-(2,2-difluoroethyl)-2-methyl-1H-indole-3-carboxylate, 2,2,2-trifluoroacetate]	3.15
